Assay results published in patent publication US20090004106A1, “Radioligands for the 5 -Ht1b Receptor” (priority 2006, published 2009).

Tested on: 5-HT1B receptor
Experiment: PET measurements in monkeys (radioligand brain uptake and 5-HT1B receptor binding)
Assay type: in vivo, Cynomolgus monkey
Procedure: Cynomolgus monkey can be used to determine the suitability of [^11C] labeled raidoligands as a radioligand for PET-determination of 5HT^1B-receptor binding and occupancy. Anaesthesia can be induced and maintained by repeated intramuscular injections of a mixture of ketamine (3-4 mg/kg per h Ketalar, Parke-Davis) and xylazine hydrochloride (1-2 mg/kg per h Rompun® Vet., Bayer, Sweden) for the duration of each measurement. A fixation device can be used for the positioning of the monkey head during the PET-measurements. Body temperature can be controlled by Bair Hugger—Model 505 (Arizant Healthcare Inc, MN).
Radioactivity in the brain can be measured with the Siemens ECAT Exact HR47 system that can be used in the three-dimensional model. The system covers an axial distance of 15 cm. The transaxial resolution of the reconstructed images is about 3.8 mm full width at half-maximum (FWHM) and the axial resolution 4.0 mm FWHM. […]
In each PET-measurement a sterile physiological phosphate buffer (pH=7.4) solution containing about 1.4 mCi (50 MBq) of [^11C] labeled compound can be injected as a bolus into a sural vein during 2 s with simultaneous start of PET-data acquisition. Radioactivity in brain can be measured continuously for 93 minutes according to a pre-programmed series of 15 frames starting immediately after IV injection of [^11C] labeled compound. […]
During all PET measurements venous blood samples (about 0.5 ml) can be taken at 4 time points (at about 4, 15, 30 and 45 minutes) and plasma radioactivity concentration determined in a well counter, cross-calibrated with the camera. […]
The ROIs can be drawn on the PET summation images representing radioactivity measured from 9 minutes after intravenous injection to the end of the measurement. […] Radioactivity is calculated for the sequence of time frames, corrected for the radioactivity decay, and plotted versus time. For each region a time-activity curve can be generated and radioactivity expressed as nCi/ml. […]

For “[^11C] 8-(4-methylpiperazin-1-yl)-5-methylchrom-2-en-4-one-2-(4-morpholinophenyl)carboxamide) [Example 3]”, the “specific binding to the areas of interest” value (primate brain PET, non specific defined as cerebellum) was “binds specifically to the areas of interest”, the “specific to non-specific ratios” value (primate brain PET, ratio of ROI to cerebellum (non specific defined as cerebellum)) was “high enough specific to non-specific ratios” and the “entry of radioligand into brain” value (primate brain, PET, IV bolus of [11C] labeled compound) was “rapidly entered the primate brain”.
